In PubChem BioAssay (NCI):
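96-well plates; 48 h exposure; 5 concentrations. Endpoints by linear interpolation between flanking doses. Not reached: highest tested concentration assigned. TGI: total growth inhibition.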

Legend:
Assay in all cases: growth of human tumour cells (NCI), 48 h
SNB-75 CNS = tested on: SNB-75 CNS
SF-268 CNS = tested on: SF-268 CNS
HCT-116 colon = tested on: HCT-116 colon
SW-620 colon = tested on: SW-620 colon
SK-OV-3 ovarian = tested on: SK-OV-3 ovarian
BT-549 breast = tested on: BT-549 breast
M14 melanoma = tested on: M14 melanoma
RPMI-8226 leukemia = tested on: RPMI-8226 leukemia
DU-145 prostate = tested on: DU-145 prostate
UACC-257 melanoma = tested on: UACC-257 melanoma
OVCAR-4 ovarian = tested on: OVCAR-4 ovarian
UACC-62 melanoma = tested on: UACC-62 melanoma
PC-3 prostate = tested on: PC-3 prostate
MDA-MB-435 = tested on: MDA-MB-435
HS 578T breast = tested on: HS 578T breast
LOX IMVI melanoma = tested on: LOX IMVI melanoma
OVCAR-5 ovarian = tested on: OVCAR-5 ovarian
786-0 renal = tested on: 786-0 renal
NCI-H460 lung = tested on: NCI-H460 lung
SK-MEL-2 melanoma = tested on: SK-MEL-2 melanoma
U251 CNS = tested on: U251 CNS
SNB-19 CNS = tested on: SNB-19 CNS
KM12 colon = tested on: KM12 colon
CCRF-CEM leukemia = tested on: CCRF-CEM leukemia
HT29 colon = tested on: HT29 colon
NCI-H522 lung = tested on: NCI-H522 lung
MALME-3M melanoma = tested on: MALME-3M melanoma
SN12C renal = tested on: SN12C renal
UO-31 renal = tested on: UO-31 renal
A549 NSCLC = tested on: A549 NSCLC
CAKI-1 renal = tested on: CAKI-1 renal
NCI-H23 lung = tested on: NCI-H23 lung
MDA-N = tested on: MDA-N
SF-295 CNS = tested on: SF-295 CNS
IGROV1 ovarian = tested on: IGROV1 ovarian
T-47D breast = tested on: T-47D breast
ACHN renal = tested on: ACHN renal
MDA-MB-231 breast = tested on: MDA-MB-231 breast
HCC-2998 colon = tested on: HCC-2998 colon
EKVX NSCLC = tested on: EKVX NSCLC
OVCAR-3 ovarian = tested on: OVCAR-3 ovarian
HL-60(TB) leukemia = tested on: HL-60(TB) leukemia
COLO 205 colon = tested on: COLO 205 colon
MOLT-4 leukemia = tested on: MOLT-4 leukemia
SK-MEL-28 melanoma = tested on: SK-MEL-28 melanoma
SR leukemia = tested on: SR leukemia
HOP-62 NSCLC = tested on: HOP-62 NSCLC
SK-MEL-5 melanoma = tested on: SK-MEL-5 melanoma
K-562 leukemia = tested on: K-562 leukemia
MCF7 breast = tested on: MCF7 breast
HOP-92 NSCLC = tested on: HOP-92 NSCLC
OVCAR-8 ovarian = tested on: OVCAR-8 ovarian
NCI/ADR-RES ovarian = tested on: NCI/ADR-RES ovarian
HCT-15 colon = tested on: HCT-15 colon
NCI-H226 lung = tested on: NCI-H226 lung
A498 renal = tested on: A498 renal
TK-10 renal = tested on: TK-10 renal

CN(CCN(C)C(=S)NN)C(=S)NN
TGI (SNB-75 CNS): > 100 µM
TGI (SF-268 CNS): > 100 µM
TGI (HCT-116 colon): > 100 µM
TGI (SW-620 colon): > 100 µM
TGI (SK-OV-3 ovarian): > 100 µM
TGI (BT-549 breast): > 100 µM
TGI (M14 melanoma): > 100 µM
TGI (RPMI-8226 leukemia): > 100 µM
TGI (DU-145 prostate): > 100 µM
TGI (UACC-257 melanoma): > 100 µM
TGI (OVCAR-4 ovarian): > 100 µM
TGI (UACC-62 melanoma): > 100 µM
TGI (PC-3 prostate): > 100 µM
TGI (MDA-MB-435): > 100 µM
TGI (HS 578T breast): > 100 µM
TGI (LOX IMVI melanoma): > 100 µM
TGI (OVCAR-5 ovarian): > 100 µM
TGI (786-0 renal): > 100 µM
TGI (NCI-H460 lung): > 100 µM
TGI (SK-MEL-2 melanoma): > 100 µM
TGI (U251 CNS): > 100 µM
TGI (SNB-19 CNS): > 100 µM
TGI (KM12 colon): > 100 µM
TGI (CCRF-CEM leukemia): > 100 µM
TGI (HT29 colon): > 100 µM
TGI (NCI-H522 lung): > 100 µM
TGI (MALME-3M melanoma): > 100 µM
TGI (SN12C renal): > 100 µM
TGI (UO-31 renal): > 100 µM
TGI (A549 NSCLC): > 100 µM
TGI (CAKI-1 renal): > 100 µM
TGI (NCI-H23 lung): > 100 µM
TGI (MDA-N): > 100 µM
TGI (SF-295 CNS): > 100 µM
TGI (IGROV1 ovarian): > 100 µM
TGI (T-47D breast): > 100 µM
TGI (ACHN renal): > 100 µM
TGI (MDA-MB-231 breast): > 100 µM
TGI (HCC-2998 colon): > 100 µM
TGI (EKVX NSCLC): > 100 µM
TGI (OVCAR-3 ovarian): > 100 µM
TGI (HL-60(TB) leukemia): > 100 µM
TGI (COLO 205 colon): > 100 µM
TGI (MOLT-4 leukemia): > 100 µM
TGI (SK-MEL-28 melanoma): > 100 µM
TGI (SR leukemia): > 100 µM
TGI (HOP-62 NSCLC): > 100 µM
TGI (SK-MEL-5 melanoma): > 100 µM

CC(=O)OC1O[C@@H](C(C)(C)O)CC[C@@H]1[C@H]1CC[C@@]2(C)C3=C(CC[C@]12C)[C@@]1(C)C[C@@H](OC(=O)CC(C)(O)CC(=O)O)[C@H](OC(C)=O)C(C)(C)C1CC3 (stereo not given in full)
TGI (K-562 leukemia): 89.1 µM
TGI (SW-620 colon): 37.4 µM
TGI (SK-OV-3 ovarian): 38.7 µM
TGI (BT-549 breast): 29.9 µM
TGI (M14 melanoma): 34.8 µM
TGI (RPMI-8226 leukemia): 53.8 µM
TGI (DU-145 prostate): 33.2 µM
TGI (UACC-257 melanoma): 31.7 µM
TGI (OVCAR-4 ovarian): 37.6 µM
TGI (UACC-62 melanoma): 72.4 µM
TGI (PC-3 prostate): 30.9 µM
TGI (MDA-MB-435): 31.4 µM
TGI (HS 578T breast): 42.3 µM
TGI (MCF7 breast): 32.5 µM
TGI (LOX IMVI melanoma): 32.6 µM
TGI (OVCAR-5 ovarian): 32.2 µM
TGI (786-0 renal): 33.9 µM
TGI (NCI-H460 lung): 32.7 µM
TGI (SK-MEL-2 melanoma): 38.7 µM
TGI (U251 CNS): 31.4 µM
TGI (SNB-19 CNS): 34.6 µM
TGI (KM12 colon): 44.9 µM
TGI (HOP-92 NSCLC): 30.8 µM
TGI (OVCAR-8 ovarian): 33.1 µM
TGI (CCRF-CEM leukemia): 41.6 µM
TGI (HT29 colon): 36.4 µM
TGI (NCI/ADR-RES ovarian): 33.7 µM
TGI (HCT-15 colon): 43.1 µM
TGI (MALME-3M melanoma): 34.1 µM
TGI (SN12C renal): 36.2 µM
TGI (UO-31 renal): 29.4 µM
TGI (A549 NSCLC): 30.9 µM
TGI (CAKI-1 renal): 29.4 µM
TGI (NCI-H23 lung): 36.8 µM
TGI (MDA-N): 34.4 µM
TGI (SF-295 CNS): 32.4 µM
TGI (IGROV1 ovarian): 33.6 µM
TGI (NCI-H226 lung): 49.6 µM
TGI (A498 renal): 33.8 µM
TGI (T-47D breast): 40.3 µM
TGI (ACHN renal): 32.5 µM
TGI (MDA-MB-231 breast): 45.5 µM
TGI (HCC-2998 colon): 36.8 µM
TGI (TK-10 renal): 33.2 µM
TGI (EKVX NSCLC): 35.3 µM
TGI (OVCAR-3 ovarian): 32.6 µM
TGI (HL-60(TB) leukemia): 65.1 µM
TGI (MOLT-4 leukemia): 43.9 µM
TGI (SK-MEL-28 melanoma): 30.8 µM
TGI (SR leukemia): 53.2 µM
TGI (HOP-62 NSCLC): 35.4 µM
TGI (SK-MEL-5 melanoma): 33.3 µM
